According to ChEMBL document CHEMBL5226361, “Marine Sponge-Derived Alkaloid Induces Mitochondrial Dysfunction and Inhibits the PI3K/AKT/mTOR Signaling Pathway against Burkitt's Lymphoma” (J Nat Prod, 2023):
Calls of active or inactive are those of the source.

Experiments:
Daudi [1] = experiment: Downregulation of c-Myc expression level in human Daudi cells incubated for 24 hrs by Western blot analysis; format: functional, cell-based; conditions: dose 0.75-3 µM
Daudi [2] = experiment: Induction of cell cycle arrest at G0/G1 phase in human Daudi cells assessed as downregulation of CDK4 protein expression at 0.75 to 3 uM incubated for 24 to 48 hrs by Western blot analysis; format: functional, cell-based; conditions: dose 0.75-3 µM, time 24-48 hrs
Raji [3] = experiment: Induction of mitochondrial respiratory chain damage in human Raji cells assessed as decrease in CYC1 protein expression at 2.5 to 5 uM incubated for 48 hrs by Western blot analysis; format: functional, cell-based; conditions: dose 2.5-5 µM
Raji [4] = experiment: Induction of cell cycle arrest at G0/G1 phase in human Raji cells assessed as upregulation of p21 protein expression at 1.25 to 5 uM incubated for 24 to 48 hrs by Western blot analysis; format: functional, cell-based; conditions: dose 1.25-5 µM, time 24-48 hrs
[5] = Inhibition of PI3K/AKT/mTOR signalling pathway in human Daudi cells assessed as increase in ratio of mTOR phosphorylation to total mTOR protein level at 3 uM incubated for 12 hrs in the presence of YS49 by Western blot analysis; format: cell-based
Daudi [6] = experiment: Induction of apoptosis in human Daudi cells assessed as necrotic cells at 3 uM incubated for 24 hrs in the presence of YS49 by Annexin V-FITC/PI staining based flow cytometric analysis (reference value: 1.0%); format: functional
[7] = Inhibition of PI3K/AKT/mTOR signalling pathway in human Daudi cells assessed as increase in ratio of AKT phosphorylation at […] residue to total AKT protein level at 3 uM incubated for 12 hrs in the presence of YS49 by Western blot analysis; format: cell-based
Daudi [8] = experiment: Induction of apoptosis in human Daudi cells assessed as effect on cleaved caspase-8 protein expression at 0.75 to 3 uM incubated for 24 hrs by Western blot analysis; format: functional, cell-based; conditions: dose 0.75-3 µM
Raji [9] = experiment: Induction of cell cycle arrest at G0/G1 phase in human Raji cells assessed as downregulation of CDK2 protein expression at 1.25 to 5 uM incubated for 24 to 48 hrs by Western blot analysis; format: functional, cell-based; conditions: dose 1.25-5 µM, time 24-48 hrs
[10] = Inhibition of PI3K/AKT/mTOR signalling pathway in human Daudi cells assessed as inhibition of PI3K phosphorylation incubated for 24 hrs by Western blot analysis; format: cell-based; conditions: dose 0.75-3 µM
Raji [11] = experiment: Effect on total AKT protein level in human Raji cells at 1.25 to 5 uM incubated for 24 hrs by Western blot analysis; format: functional, cell-based; conditions: dose 1.25-5 µM
Raji [12] = experiment: Induction of apoptosis in human Raji cells assessed as upregulation of cleaved PARP expression at 1.25 to 5 uM incubated for 24 hrs by Western blot analysis; format: functional, cell-based; conditions: dose 1.25-5 µM
Daudi [13] = experiment: Effect on total mTOR protein level in human Daudi cells at 0.75 to 3 uM incubated for 24 hrs by Western blot analysis; format: functional, cell-based; conditions: dose 0.75-3 µM
Daudi [14] = experiment: Induction of cell cycle arrest in human Daudi cells assessed as accumulation of cells at G0/G1 phase at 3 uM incubated for 24 hrs by PI staining based flow cytometry analysis (reference value: 24.28%); format: functional
Daudi [15] = experiment: Induction of cell cycle arrest at G0/G1 phase in human Daudi cells assessed as upregulation of gamma-H2AX protein expression at 0.75 to 3 uM incubated for 24 to 48 hrs by Western blot analysis; format: functional, cell-based; conditions: dose 0.75-3 µM, time 24-48 hrs
Daudi [16] = experiment: Induction of mitochondrial respiratory chain damage in human Daudi cells assessed as decrease in CYC1 protein expression at 1.5 to 3 uM incubated for 48 hrs by Western blot analysis; format: functional, cell-based; conditions: dose 1.5-3 µM
Daudi [17] = experiment: Induction of mitochondrial respiratory chain damage in human Daudi cells assessed as decrease in NDUFV2 protein expression at 1.5 to 3 uM incubated for 48 hrs by Western blot analysis; format: functional, cell-based; conditions: dose 1.5-3 µM
Daudi [18] = experiment: Induction of apoptosis in human Daudi cells assessed as viable cells at 3 uM incubated for 24 hrs by Annexin V-FITC/PI staining based flow cytometric analysis (reference value: 97.2%); format: functional; conditions: read-out: Activity
Daudi [19] = experiment: Induction of mitochondrial dysfunction in human Daudi cells assessed as decrease in ATP-5J protein expression at 1.5 to 3 uM incubated for 48 hrs by Western blot analysis; format: functional, cell-based; conditions: dose 1.5-3 µM
Daudi [20] = experiment: Induction of apoptosis in human Daudi cells assessed as effect on Bax protein expression at 0.75 to 3 uM incubated for 24 hrs by Western blot analysis; format: functional, cell-based; conditions: dose 0.75-3 µM
Daudi [21] = experiment: Induction of apoptosis in human Daudi cells assessed as upregulation of cytochrome C expression at 0.75 to 3 uM incubated for 24 hrs by Western blot analysis; format: functional, cell-based; conditions: dose 0.75-3 µM
Daudi [22] = experiment: Induction of apoptosis in human Daudi cells assessed as early apoptotic cells at 3 uM incubated for 24 hrs by Annexin V-FITC/PI staining based flow cytometric analysis (reference value: 1.7%); format: functional
Raji [23] = experiment: Induction of apoptosis in human Raji cells assessed as effect on cleaved caspase-8 protein expression at 1.25 to 5 uM incubated for 24 hrs by Western blot analysis; format: functional, cell-based; conditions: dose 1.25-5 µM
Raji [24] = experiment: Induction of mitochondrial dysfunction in human Raji cells assessed as decrease in ATP-5J protein expression at 2.5 to 5 uM incubated for 48 hrs by Western blot analysis; format: functional, cell-based; conditions: dose 2.5-5 µM
Daudi [25] = experiment: Effect on total PI3K protein level in human Daudi cells at 0.75 to 3 uM incubated for 24 hrs by Western blot analysis; format: functional, cell-based; conditions: dose 0.75-3 µM
Raji [26] = experiment: Induction of mitochondrial respiratory chain damage in human Raji cells assessed as decrease in SDHA protein expression at 2.5 to 5 uM incubated for 48 hrs by Western blot analysis; format: functional, cell-based; conditions: dose 2.5-5 µM
Raji [27] = experiment: Downregulation of c-Myc expression level in human Raji cells incubated for 24 hrs by Western blot analysis; format: functional, cell-based; conditions: dose 1.25-5 µM
Raji [28] = experiment: Induction of apoptosis in human Raji cells assessed as effect on Bax protein expression at 1.25 to 5 uM incubated for 24 hrs by Western blot analysis; format: functional, cell-based; conditions: dose 1.25-5 µM
Daudi [29] = experiment: Induction of cell cycle arrest at G0/G1 phase in human Daudi cells assessed as downregulation of Cyclin E1 protein expression at 0.75 to 3 uM incubated for 24 to 48 hrs by Western blot analysis; format: functional, cell-based; conditions: dose 0.75-3 µM, time 24-48 hrs
Daudi [30] = experiment: Induction of apoptosis in human Daudi cells assessed as upregulation of cleaved caspase-9 expression at 0.75 to 3 uM incubated for 24 hrs by Western blot analysis; format: functional, cell-based; conditions: dose 0.75-3 µM
Daudi [31] = experiment: Induction of apoptosis in human Daudi cells assessed as downregulation of Mcl-1 expression at 0.75 to 3 uM incubated for 24 hrs by Western blot analysis; format: functional, cell-based; conditions: dose 0.75-3 µM
Raji [32] = experiment: Effect on total PI3K protein level in human Raji cells at 1.25 to 5 uM incubated for 24 hrs by Western blot analysis; format: functional, cell-based; conditions: dose 1.25-5 µM
Daudi [33] = experiment: Induction of apoptosis in human Daudi cells assessed as nuclear fragmentation incubated for 24 hrs by Hoechst 33258/PI staining based fluorescence microscopic analysis; format: functional, cell-based; conditions: dose 0.75-3 µM
Raji [34] = experiment: Induction of mitochondrial oxidative damage in human Raji cells assessed as increase in intracellular mitochondrial superoxide generation at 5 uM incubated for 1 to 6 hrs by MitoSOX red dye based flow cytometric analysis; format: functional, cell-based; conditions: time 1-6 hrs
Raji [35] = experiment: Induction of cell cycle arrest at G0/G1 phase in human Raji cells assessed as downregulation of CyclinE1 protein expression at 1.25 to 5 uM incubated for 24 to 48 hrs by Western blot analysis; format: functional, cell-based; conditions: dose 1.25-5 µM, time 24-48 hrs

COc1c(OC)c2c3c(nccc3c1-c1cc(C)cc(C)c1)C(c1cc(C)cc(C)c1)=CN2
active: Activity (Daudi [1]) Dose-Dependent Effect | Activity (Daudi [2]) | Activity (Raji [3]) | Activity (Raji [4]) | Activity (Raji [9]) | inhibition [10] Dose-Dependent Effect | Activity (Raji [12]) | Activity (Daudi [15]) | Activity (Daudi [16]) | Activity (Daudi [17]) | Activity (Daudi [19]) | Activity (Daudi [21]) | Activity (Raji [24]) | Activity (Raji [26]) | Activity (Raji [27]) Dose-Dependent Effect | Activity (Daudi [29]) | Activity (Daudi [30]) | Activity (Daudi [31]) | Activity (Daudi [33]) Dose-Dependent Effect | Activity (Raji [34]) | Activity (Raji [35])
49.7%: Activity (Daudi [14])
18.6%: Activity (Daudi [22])
1.7%: Activity (Daudi [6])
inactive: inhibition [5] | inhibition [7] | Activity (Daudi [8]) | Activity (Raji [11]) | Activity (Daudi [13]) | Activity (Daudi [20]) | Activity (Raji [23]) | Activity (Daudi [25]) | Activity (Raji [28]) | Activity (Raji [32])
72.7%: viability at 3 µM (Daudi [18])
